Read-outs that look alike come from different tables or passages of the source.
Legend:
[1] = biological target: DNA-PK (Homo sapiens (Human), UniProt P78527); experiment: DNA-PK assay (biochemical), flashplate 33P-ATP kinase assay
Method: A) DNA-PK Assay (Biochemical)
The kinase assay was carried out in streptavidin-coated […] microtitre flashplates. […] The reaction was stopped using 50 μl/well of 200 mM EDTA. After incubation for a further 30 min at room temperature, the liquid was removed. Each well was washed three times with 100 μl of 0.9% saline solution. A nonspecific reaction (blank value) was determined using 10 μM of an innate kinase inhibitor. The radioactivity measurement was carried out using a TopCount. IC50 values were calculated in RS1.

[2] = biological target: Kv11.1 (hERG) (Homo sapiens (Human), UniProt Q12809); experiment: Kv11.1 (hERG) ion channel activity (patch clamp assay), HEK293 cells transfected with hERG gene
Sequence of Kv11.1 (hERG) (Q12809 whole entry): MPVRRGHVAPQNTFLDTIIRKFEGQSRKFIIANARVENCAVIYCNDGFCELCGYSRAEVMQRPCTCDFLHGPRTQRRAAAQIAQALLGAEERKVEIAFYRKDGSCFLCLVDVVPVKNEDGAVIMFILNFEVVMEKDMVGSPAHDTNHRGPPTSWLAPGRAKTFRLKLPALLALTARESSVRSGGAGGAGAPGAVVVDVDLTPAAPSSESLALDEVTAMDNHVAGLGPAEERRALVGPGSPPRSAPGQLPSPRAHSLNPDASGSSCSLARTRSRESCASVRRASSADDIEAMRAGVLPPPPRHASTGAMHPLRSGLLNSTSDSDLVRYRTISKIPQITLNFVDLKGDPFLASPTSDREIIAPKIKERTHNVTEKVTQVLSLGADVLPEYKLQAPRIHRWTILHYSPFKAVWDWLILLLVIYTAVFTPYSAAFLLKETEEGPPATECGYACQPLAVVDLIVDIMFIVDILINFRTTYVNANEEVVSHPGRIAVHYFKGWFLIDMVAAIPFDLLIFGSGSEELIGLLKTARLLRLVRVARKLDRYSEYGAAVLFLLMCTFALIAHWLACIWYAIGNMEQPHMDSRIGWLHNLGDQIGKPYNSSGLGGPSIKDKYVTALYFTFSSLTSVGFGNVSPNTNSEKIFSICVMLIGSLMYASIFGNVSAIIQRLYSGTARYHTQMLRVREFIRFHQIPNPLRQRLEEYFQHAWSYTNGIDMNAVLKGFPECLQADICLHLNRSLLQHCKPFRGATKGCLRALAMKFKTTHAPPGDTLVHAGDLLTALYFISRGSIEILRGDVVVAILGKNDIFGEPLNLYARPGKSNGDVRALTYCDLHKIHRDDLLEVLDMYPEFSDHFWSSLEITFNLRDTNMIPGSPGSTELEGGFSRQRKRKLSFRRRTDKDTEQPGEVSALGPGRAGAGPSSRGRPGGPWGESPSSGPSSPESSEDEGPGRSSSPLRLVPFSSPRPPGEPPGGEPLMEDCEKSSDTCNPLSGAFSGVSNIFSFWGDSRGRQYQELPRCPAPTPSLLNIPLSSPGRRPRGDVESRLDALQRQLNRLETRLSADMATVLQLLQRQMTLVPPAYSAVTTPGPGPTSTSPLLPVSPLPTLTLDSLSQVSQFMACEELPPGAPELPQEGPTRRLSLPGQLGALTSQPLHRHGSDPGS

[3] = biological target: DNA-PK phosphorylation at serine 2056 (Homo sapiens (Human), UniProt P78527); experiment: DNA-PK phosphorylation at serine 2056 (cellular), bleomycin-treated HCT116 cells, ELISA; type: cell-based; details: read-out: IC50 pDNA-PK
Method: HCT116 cells were cultivated at 37° C. and 10% CO2 in MEM alpha medium with 10% of foetal calf serum and 2 mM glutamine. The cells were detached from the base of the culture vessels with the aid of trypsin/EDTA, centrifuged off in centrifuge tubes, taken up in fresh medium, and the cell density was determined. 100,000 cells were sown in 1 ml of culture medium per cavity of a 24-well cell culture plate and cultivated overnight. Next day, 10 μM bleomycin (DNA intercalator and inductor of DNA double-strand breaks) and test substances in fresh culture medium were added to the cells, and these were cultivated for a further six hours. […] The 96-well ELISA plates were subsequently treated with a detection antibody (Abcam ab79444: total DNA-PK) and a streptavidin-HRP conjugate. The development of the enzymatic reaction was carried out with the aid of a chemiluminescent reagent, the chemiluminescence was measured with the aid of a Mithras LB940. The signals with the phospho-DNA-PK-specific antibody were standardised to the signal with the antibody against the total protein DNA-PKc. […] The DMSO control was used as blank.

[4] = read-out: Ki [Kv1.11 hERG], patch clamp, HEK293 transfected with hERG gene
[5] = cellular, HCT116 cells, 10 μM bleomycin, six hours
[6] = Ki [Kv1.11 hERG], patch clamp, HEK293 transfected with hERG gene
[7] = read-out: Ki [Kv1.11 hERG], hERG patch clamp assay (cells without asterisk)
[8] = cellular DNA-PK phosphorylation at serine 2056, HCT116
[9] = human, HEK293 cells stably transfected with the hERG gene, Ki [Kv1.11 hERG], hERG patch clamp assay (cells without asterisk)

SMILES	IC50 ([1]; enzymatic, 5 μM ATP)	IC50 [3, 5]	Ki [2, 6]	IC50 ([1]; biochemical DNA-PK assay)	IC50 [3, 8]	further results
Cn1nc(C(O)c2cc(-c3ncnc4cc(N5CCOCC5)ccc34)c(F)cc2Cl)ccc1=O (single isomer, unassigned) [Example 45, 6-{[2-Chloro-4-fluoro-5-(7-morpholin-4-yl-quinazolin-4-yl)phenyl]-hydroxymethyl}-2-methyl-2H-pyridazin-3-one]	< 0.003 µM	< 0.5 µM				Ki [2, 4]: 15 to 25 µM
CC(C#N)Oc1ccc(C(O)c2cc(-c3ncnc4cc(N5CCOCC5)ccc34)c(F)cc2Cl)nn1 (single isomer, unassigned) [Example 102, 2-(6-{[2-Chloro-4-fluoro-5-(7-morpholin-4-yl-quinazolin-4-yl)-phenyl)hydroxy-methyl}pyridazin-3-yloxy)propionitrile]	< 0.003 µM	< 0.5 µM	15 to 25 µM			
CC(C#N)Oc1ccc(C(O)c2cc(-c3ncnc4cc(N5CCOCC5)ccc34)c(F)cc2Cl)nn1 (single isomer, unassigned) [Example 103, 2-(6-{[2-Chloro-4-fluoro-5-(7-morpholin-4-yl-quinazolin-4-yl)-phenyl]hydroxy-methyl}pyridazin-3-yloxy)propionitrile]	> 0.03 µM	10 to 30 µM				Ki [2, 4]: > 25 µM
CC(C#N)Oc1ccc(C(O)c2cc(-c3ncnc4cc(N5CCOCC5)ccc34)c(F)cc2Cl)nn1 (single isomer, unassigned) [Example 104, 2-(6-{[2-Chloro-4-fluoro-5-(7-morpholin-4-yl-quinazolin-4-yl)-phenyl]hydroxy-methyl}pyridazin-3-yloxy)propionitrile]	0.007 to 0.03 µM	0.5 to 5 µM				Ki [2, 4]: 15 to 25 µM
COc1ccc(C(O)c2cc(-c3ncnc4cc(N5CCOCC5)sc34)c(F)cc2Cl)nn1 (single isomer, unassigned) [Example 126, [2-Chloro-4-fluoro-5-(6-morpholin-4-ylthieno[3,2-d}-pyrimidin-4-yl)-phenyl]-(6-methoxy-pyridazin-3-yl)-methanol]	< 0.003 µM	< 0.5 µM				Ki ([2]; human, HEK293 cells stably transfected with the hERG gene, Ki [Kv1.11 hERG], patch clamp, HEK293 transfected with hERG gene): 10 to 15 µM
COc1ccc(C(O)c2cc(-c3ncnc4cc(N5CCOCC5)cc(F)c34)c(F)cc2Cl)nn1 (single isomer, unassigned) [Example 271, [2-Chloro-4-fluoro-5-(5-fluoro-7-morpholin-4-yl-quinazolin-4-yl)-phenyl]-(6-methoxy-pyridazin-3-yl)-methanol]				< 0.003 µM	< 0.5 µM	Ki [2, 7]: > 25 µM
Cn1c(C(O)c2cc(-c3ncnc4cc(N5CCOCC5)ccc34)ccc2Cl)cccc1=O (single isomer, unassigned) [Example 363, 6-{[2-Chloro-5-(7-morpholin-4-yl-quinazolin-4-yl)-phenyl]hydroxy-methyl}-1-methyl-1H-pyridin-2-one]				0.007 to 0.03 µM	5 to 10 µM	Ki ([2]; Ki [Kv1.11 hERG], hERG patch clamp assay (cells without asterisk)): 15 to 25 µM
Cn1c(C(O)c2cc(-c3ncnc4cc(N5CCOCC5)ccc34)ccc2Cl)cccc1=O (single isomer, unassigned) [Example 364, 6-{[2-Chloro-5-(7-morpholin-4-yl-quinazolin-4-yl)-phenyl]hydroxy-methyl}-1-methyl-1H-pyridin-2-one]				< 0.003 µM	< 0.5 µM	Ki [2, 7]: > 25 µM
OC(c1cc(-c2ncnc3cc(N4CCOCC4)ccc23)c(F)cc1Cl)c1nccn2ccnc12 (single isomer, unassigned) [Example 395, [2-Chloro-4-fluoro-5-(7-morpholin-4-yl-quinazolin-4-yl)-phenyl)imidazo-[1,2-a]pyrazin-8-yl-methanol]				0.007 to 0.03 µM	5 to 10 µM	Ki [2, 9]: 15 to 25 µM
OC(c1cc(-c2ncnc3cc(N4CCOCC4)ccc23)c(F)cc1Cl)c1nccn2ccnc12 (single isomer, unassigned) [Example 396]				0.003 to 0.007 µM	< 0.5 µM	Ki [2, 7]: > 25 µM
OC(c1cccnn1)c1cc(-c2ncnc3cc(N4CCOCC4)ccc23)ccc1Cl (single isomer, unassigned) [Example 469, [2-Chloro-5-(7-morpholin-4-yl-quinazolin-4-yl)-phenyl]pyridazin-3-yl-methanol]				> 0.03 µM	10 to 30 µM	Ki [2, 9]: 10 to 15 µM
OC(c1cccnn1)c1cc(-c2ncnc3cc(N4CCOCC4)ccc23)ccc1Cl (single isomer, unassigned) [Example 470, [2-Chloro-5-(7-morpholin-4-yl-quinazolin-4-yl)-phenyl]pyridazin-3-yl-methanol]				0.003 to 0.007 µM	< 0.5 µM	Ki [2, 7]: > 25 µM
OC(c1ccc(F)c(-c2ncnc3cc(N4CCOCC4)ccc23)c1)c1c(F)cncc1F (stereo not drawn) [Example 1, (3,5-Difluoropyridin-4-yl)-[4-fluoro-3-(7-morpholin-4-ylquinazolin-4-yl)phenyl]methanol]	0.003 to 0.007 µM	0.5 to 5 µM	15 to 25 µM			
OC(c1ccc(F)c(-c2ncnc3cc(N4CCOCC4)ccc23)c1)c1cncc(F)c1Cl (stereo not drawn) [Example 2, (4-Chloro-5-fluoropyridin-3-yl)-[4-fluoro-3-(7-morpholin-4-ylquinazolin-4-yl)phenyl]methanol]	0.003 to 0.007 µM	< 0.5 µM	10 to 15 µM			
COc1ccnnc1C(O)c1cc(-c2ncnc3cc(N4CCOCC4)ccc23)c(F)cc1Cl (stereo not drawn) [Example 3, [2-Chloro-4-fluoro-5-(7-morpholin-4-yl-quinazolin-4-yl)phenyl]-(4-methoxy-pyridazin-3-yl)methanol]	0.003 to 0.007 µM	0.5 to 5 µM				Ki [2, 4]: > 25 µM
O=c1[nH]ccnc1C(O)c1ccc(F)c(-c2ncnc3cc(N4CCOCC4)ccc23)c1 (stereo not drawn) [Example 5, 3-{[4-Fluoro-3-(7-morpholin-4-yl-quinazolin-4-yl)phenyl]-hydroxymethyl]-1H-pyrazin-2-one]	> 0.03 µM	10 to 30 µM	15 to 25 µM			
COc1cc(C(O)c2ccc(F)c(-c3ncnc4cc(N5CCOCC5)ccc34)c2)c(Cl)nn1 (stereo not drawn) [Example 7, (3-Chloro-6-methoxy-pyridazin-4-yl)-[4-fluoro-3-(7-morpholin-4-yl-quinazolin-4-yl)phenyl]-methanol]	0.003 to 0.007 µM	< 0.5 µM	15 to 25 µM			
COc1cc(Cl)nnc1C(O)c1cc(-c2ncnc3cc(N4CCOCC4)ccc23)c(F)cc1Cl (stereo not drawn) [Example 8, [2-Chloro-4-fluoro-5-(7-morpholin-4-yl-quinazolin-4-yl)phenyl]-(6-chloro-4-methoxy-pyridazin-3-yl)methanol]	0.007 to 0.03 µM	0.5 to 5 µM	10 to 15 µM			
COc1cc(Cl)nnc1C(O)c1ccc(F)c(-c2ncnc3cc(N4CCOCC4)ccc23)c1 (stereo not drawn) [Example 10, (6-Chloro-4-methoxy-pyridazin-3-yl)-[4-fluoro-3-(7-morpholin-4-yl-quinazolin-4-yl)phenyl]-methanol]	0.003 to 0.007 µM	< 0.5 µM				Ki [2, 4]: > 25 µM
CC(C)(C)Oc1nccnc1C(O)c1ccc(F)c(-c2ncnc3cc(N4CCOCC4)ccc23)c1 (stereo not drawn) [Example 13, (3-tert-Butoxy-pyrazin-2-yl)-[4-fluoro-3-(7-morpholin-4-yl-quinazolin-4-yl)phenyl]-methanol]	> 0.03 µM	10 to 30 µM	10 to 15 µM			
OC(c1ccc(F)c(-c2ncnc3cc(N4CCOCC4)ccc23)c1)c1nccnc1N1CCCC1 (stereo not drawn) [Example 14, [4-Fluoro-3-(7-morpholin-4-yl-quinazolin-4-yl)phenyl]-(3-pyrrolidin-1-yl-pyrazin-2-yl)methanol]	0.003 to 0.007 µM	0.5 to 5 µM				Ki [2, 4]: > 25 µM
